Assay results reported in US20180008573A1, “METHODS AND COMPOSITIONS FOR REDUCING DAMAGE ASSOCIATED WITH OXIDATIVE PHOSPHORYLATION” (USANA Health Sciences, Inc., priority 2016, published 2018).

Key:
[1] = tested on: NF-κB reporter cells; assay: Live cell multiplex assay in the NF-κB antagonist assay; format: cell-based, human
Protocol: A vehicle control was prepared.

[2] = biological target: T1, Nrf2 (Homo sapiens, UniProt Q16236); assay: Nrf2 agonist reporter assay (native receptor, ARE-luciferase, CV1 cells); format: cell-based; design: comprising either the native receptor (Nrf2 and NF-κB); expressed in transfected cells; host or cells: CV1
T1 sequence (Q16236 1-605): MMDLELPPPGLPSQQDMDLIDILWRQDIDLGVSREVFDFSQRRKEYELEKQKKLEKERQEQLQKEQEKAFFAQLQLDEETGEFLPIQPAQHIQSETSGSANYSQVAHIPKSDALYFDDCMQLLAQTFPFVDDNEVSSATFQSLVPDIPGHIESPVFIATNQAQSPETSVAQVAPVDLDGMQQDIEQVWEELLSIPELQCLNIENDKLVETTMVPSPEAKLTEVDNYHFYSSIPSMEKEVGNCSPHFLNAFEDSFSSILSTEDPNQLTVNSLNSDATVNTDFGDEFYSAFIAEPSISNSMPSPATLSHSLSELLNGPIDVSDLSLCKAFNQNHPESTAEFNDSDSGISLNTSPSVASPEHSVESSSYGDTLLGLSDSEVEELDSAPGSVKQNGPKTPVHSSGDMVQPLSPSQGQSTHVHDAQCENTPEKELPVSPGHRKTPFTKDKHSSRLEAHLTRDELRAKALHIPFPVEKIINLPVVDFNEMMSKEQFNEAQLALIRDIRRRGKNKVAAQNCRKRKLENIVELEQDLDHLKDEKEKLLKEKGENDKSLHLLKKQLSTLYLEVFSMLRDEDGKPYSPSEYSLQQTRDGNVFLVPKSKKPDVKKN

[3] = biological target: T1, Nrf2; assay: Nrf2 signaling fluorescent reporter assay in human retinal epithelial cell line; format: cell-based; design: host or cells: human retinal epithelial cell line
[4] = tested on: C. elegans strain CB5586; assay: C. elegans phenotypic lifespan screening (Kaplan-Meier, Log-Rank, Fisher's Exact Test); format: in vivo; conditions: for restricted mean lifespan, # of Days: DMSO control 13.23
Protocol: Dilutions of the test formulations were applied to individual populations of C. elegans and the lifespan of each population was monitored. Any changes in the lifespan of an individual population compared to a control population were recorded and correlated to the respective test formulation (N356 or N357) and the respective dilution (0.1 mg/ml, 1 mg/ml, and 10 mg/ml).
The […] and N357 formulations were each prepared as individual 100 mg/ml stock solutions in dimethyl sulfoxide (DMSO). Serial dilutions of each stock solution were then prepared at 0.1 mg/ml, 1 mg/ml, and 10 mg/ml in DMSO. Control solutions of DMSO only were also prepared. Synchronous aged adult populations of C.elegans strain CB5586 worms were prepared. The CB5586 strain comprises a pharyngeal GFP (green fluorescent protein) tag and a mutation in the bus-5 gene. The pharyngeal GFP tag allows for fluorescent images of the worm populations to be taken. The mutation in the bus-5 gene causes the loss of normal cuticle antigens that permits the cuticle of the worms to become permeable to the test formulations and allow direct uptake of the test formulations to avoid interaction of the test formulations with protective mechanisms of the gut channel. Each serial dilution of each test formulation was added to a separate population of the prepared worms. The control solutions were also added to separate populations of the prepared worms. The populations of the prepared worms were then maintained on standard nematode growth media (NGM) agar plates at 20° C. with sufficient food (Escherichia coli strain OP-50).
Each worm population was then monitored by fluorescent imaging to determine the number of living and dead worms as a function of time. The fluorescent imaging was analyzed by software that recognized and counted worms based on their fluorescent intensity compared to background fluorescence. […] The ability to distinguish between living and dead worms allowed the number of living worms and cumulative number of dead worms to be monitored against time. Worm populations from a selection of fluorescent images were manually checked to verify that the software had accurately counted the number of living and dead worms.
The counts of the living and dead worms as a function of time were then analyzed for each of the worm populations and used to prepare Kaplan-Meier survival curves and associated statistics for each of the worm populations. […] The median lifespan is shown as the length of time after the last mitotic division that 50% of the test population remains viable when compared to the control population. The maximum lifespan extension is shown as the length of time after the last mitotic division that 5% of the test population remains viable when compared to the control population.
The counts of the living and dead worms as a function of time and the Kaplan-Meier survival curves and the associated statistics were then analyzed for each of the worm populations. The analysis included determining mean and median lifespan. The analysis included a non-parametric test, the Log-Rank test, that compares two survival functions for the overall lifespan assay and provides a reliable p-value summarizing the whole experiment. The analysis also included Fisher's Exact Test that calculated the significance of survival function comparisons at multiple specific time points throughout the experiment, rather than for the overall lifespan. The results of the analysis are shown below in Tables 10-17.
Phenotypic screening was carried out as described in EXAMPLE 2 for various individual compounds of the N357 formulation. […] Alpha lipoic acid was sourced from PureBulk USA as a racemic mix of R and S stereoisomers and was assigned a sample number of N198. Hesperidin was sourced from Sigma Aldrich at ≧80% purity and was assigned a sample number of N347. […]

[5] = tested on: human NF-κB; assay: NF-κB antagonist reporter assay (NF-κB GRE-luciferase, HEK293 cells); format: cell-based;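 further: reporter cells carry native NF-κB receptor with firefly luciferase under upstream response elements, with a vehicle control included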

Nrf2 Fold-Activation ([2]; 1.42 μg/ml active ingredient): 1.4 fold
Nrf2 Fold-Activation ([2]; 4.25 μg/ml active ingredient): 1.4 fold
Nrf2 Fold-Activation ([2]; 12.7 μg/ml active ingredient): 1.5 fold
Nrf2 Fold-Activation ([2]; 38.23 μg/ml active ingredient): 1.5 fold
Nrf2 Fold-Activation ([2]; 114.70 μg/ml active ingredient): 2.4 fold
agonist activity against human Nrf2 ([2]; at the concentrations tested): very low-level agonist activity
minimum inducing concentration (Nrf2) ([3]; human retinal epithelial cell line): 1.75 µM
Structure (SMILES): O=C(O)CCCCC1CCSS1 (racemic) [Alpha lipoic acid, alpha lipoic acid]
NF-κB % Live Cell ([1]; 1.42 μg/ml active ingredient): 100%
NF-κB % Live Cell ([1]; 4.25 μg/ml active ingredient): 104%
NF-κB % Live Cell ([1]; 12.7 μg/ml active ingredient): 102%
NF-κB % Live Cell ([1]; 38.23 μg/ml active ingredient): 104%
NF-κB % Live Cell ([1]; 114.70 μg/ml active ingredient): 105%
activation of Nrf2 ([3]; 100 μM and 30 μM against a control): demonstrated activation of Nrf2 at both 100 μM and 30 μM
Statistically Significant Result (lifespan vs. DMSO control) ([4]; 0.1 mg/ml): Statistically significant increase
extension of lifespan ([4]; 0.1 mg/ml): about 12.5%
population age in days at 25% mortality ([4]; 0.1 mg/ml): 14 days
population age in days at 50% mortality ([4]; 0.1 mg/ml): 16 days
population age in days at 75% mortality ([4]; 0.1 mg/ml): 18 days
effect on chronological lifespan ([4]; 0.1 mg/ml and 10 mg/ml tested): significant positive and dose dependent increase of chronological lifespan
% Change in Mean Lifespan ([4]; 0.1 mg/ml vs. DMSO control): +12.5%
restricted mean lifespan, # of Days ([4]; 0.1 mg/ml): 14.89 days
Statistically Significant Result (lifespan vs. DMSO control) ([4]; 10 mg/ml): Statistically significant increase
extension of lifespan ([4]; 10 mg/ml): about 12.5%
population age in days at 25% mortality ([4]; 10 mg/ml): 14 days
population age in days at 50% mortality ([4]; 10 mg/ml): 16 days
population age in days at 75% mortality ([4]; 10 mg/ml): 18 days
% Change in Mean Lifespan ([4]; 10 mg/ml vs. DMSO control): +12.5%
restricted mean lifespan, # of Days ([4]; 10 mg/ml): 14.85 days
NF-κB % Inhibition ([5]; 1.42 μg/ml active ingredient): 3.1%
NF-κB % Inhibition ([5]; 4.25 μg/ml active ingredient): −0.70%
NF-κB % Inhibition ([5]; 12.7 μg/ml active ingredient): −6.1%
NF-κB % Inhibition ([5]; 38.23 μg/ml active ingredient): 5.9%
NF-κB % Inhibition ([5]; 114.70 μg/ml active ingredient): −14%
